Laboratory results: article PMC9635925, “Biological screening of a unique drug library targeting MRGPRX2” (Frontiers in Immunology, 2022)
Changes are numbered by the printed parent chain. Where a name gives a salt, the structure may show the parent alone.

Key:
[1] = biological target: T1, MRGPRX2-MUT (MRGPRX2 N62S mutation) (Homo sapiens, UniProt Q96LB1, N62S); experiment: Primary HTS, Ca2+ mobilization (fluorescence ratio, B-score) in HEK293-Gα15 cells stably expressing the MRGPRX2 N62S mutation; assay type: cell-based; conditions: Supplementary Table 2
T1 construct: expressed in transfected cells
T1 sequence (Q96LB1 1-330 N62S): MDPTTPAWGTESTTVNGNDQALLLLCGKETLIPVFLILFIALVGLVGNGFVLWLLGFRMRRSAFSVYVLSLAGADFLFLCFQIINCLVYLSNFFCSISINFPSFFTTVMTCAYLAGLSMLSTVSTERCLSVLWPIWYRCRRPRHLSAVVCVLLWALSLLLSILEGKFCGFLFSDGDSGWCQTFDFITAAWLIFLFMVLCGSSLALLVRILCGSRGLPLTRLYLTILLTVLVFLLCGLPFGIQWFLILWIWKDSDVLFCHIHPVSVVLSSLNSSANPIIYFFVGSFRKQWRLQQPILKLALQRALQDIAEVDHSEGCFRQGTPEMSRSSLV

[2] = biological target: T2, MRGPRX2-WT (wild-type MRGPRX2 receptor) (Homo sapiens, UniProt Q96LB1); experiment: Primary HTS, Ca2+ mobilization (fluorescence ratio, B-score) in HEK293-Gα15 cells stably expressing wild-type MRGPRX2; assay type: cell-based
T2 construct: expressed in transfected cells
T2 sequence (Q96LB1 1-330): T1 sequence (Q96LB1 1-330 N62S) with S62N

MRGPRX2 N62S = biological target: T3, MRGPRX2 N62S (Homo sapiens, UniProt Q96LB1, N62S); experiment: Calcium response dose-response curves in HEK293-Gα15 cells expressing MRGPRX2 N62S; assay type: cell-based; conditions: P=0.013, unpaired t-test
T3 construct: expressed in transfected cells
T3 sequence (Q96LB1 1-330 N62S): T1 sequence (Q96LB1 1-330 N62S)

MRGPRX2-WT = biological target: T4, MRGPRX2-WT (Homo sapiens, UniProt Q96LB1); experiment: Calcium response dose-response curves in HEK293-Gα15 cells expressing MRGPRX2-WT; assay type: cell-based
T4 construct: expressed in transfected cells
T4 sequence (Q96LB1 1-330): T1 sequence (Q96LB1 1-330 N62S) with S62N

[3] = test system: HEK293-Gα15 cells without MRGPRX2; experiment: Calcium release in HEK293-Gα15 cells without MRGPRX2 (negative control screening); conditions: compared to MRGPRX2-WT or MRGPRX2-N62S cells, data not shown
MRGPRX2 = conditions: weak agonist; cited from earlier work

COc1cccc2c1C(=O)c1c(O)c3c(c(O)c1C2=O)C[C@@](O)(C(C)=O)C[C@@H]3O[C@H]1C[C@H](N)[C@H](O)[C@H](C)O1 [Daunorubicin Hydrochloride]
B-scores (MUT) ([1]; 10 μM compound, MRGPRX2-MUT (N62S) cells): 15.19
Change of B-scores (%) ([1]; MRGPRX2-MUT versus MRGPRX2-WT cells, 10 μM): 414.49%
B-scores (WT) ([2]; 10 μM compound, Supplementary Table 2): 2.95
EC50 values comparing MRGPRX2-MUT to MRGPRX2-WT cells (MRGPRX2 N62S): demonstrated the LOF property

COc1cccc2c1C(=O)c1c(O)c3c(c(O)c1C2=O)C[C@@](O)(C(=O)CO)C[C@@H]3O[C@H]1C[C@H](N)[C@H](O)[C@H](C)O1 [Doxorubicin Hydrochloride]
EC50 (MRGPRX2-WT): 131 nM

CSCC[C@H](NC(=O)[C@H](CC(C)C)NC(=O)CNC(=O)[C@H](Cc1ccccc1)NC(=O)[C@H](Cc1ccccc1)NC(=O)[C@H](CCC(N)=O)NC(=O)[C@H](CCC(N)=O)NC(=O)[C@@H]1CCCN1C(=O)[C@H](CCCCN)NC(=O)[C@@H]1CCCN1C(=O)[C@@H](N)CCCNC(=N)N)C(N)=O [SP, substance P]
calcium response in empty HEK293-Gα15 cells [3]: no increase in calcium response was detected

CN[C@H](CC(C)C)C(=O)N[C@H]1C(=O)N[C@@H](CC(N)=O)C(=O)N[C@H]2C(=O)N[C@H]3C(=O)N[C@H](C(=O)N[C@H](C(=O)O)c4cc(O)cc(O)c4-c4cc3ccc4O)[C@H](O)c3ccc(c(Cl)c3)Oc3cc2cc(c3O[C@@H]2O[C@H](CO)[C@@H](O)[C@H](O)[C@H]2O[C@H]2C[C@](C)(N)[C@H](O)[C@H](C)O2)Oc2ccc(cc2Cl)[C@H]1O [vancomycin]
calculated EC50 (MRGPRX2): 60 µg/mL
B-score value ([2]; 10 μM): 16.36
